According to US12440496B2, “Natriuretic peptide receptor a agonists useful for the treatment of cardiometabolic diseases, kidney disease and diabetes” (Merck Sharp & Dohme LLC, priority 2019, dated 2025):

Target: T1, hNPRA (Homo sapiens, UniProt P16066)
T1 construct: expressed in transfected cells
T1 sequence (P16066 33-1061): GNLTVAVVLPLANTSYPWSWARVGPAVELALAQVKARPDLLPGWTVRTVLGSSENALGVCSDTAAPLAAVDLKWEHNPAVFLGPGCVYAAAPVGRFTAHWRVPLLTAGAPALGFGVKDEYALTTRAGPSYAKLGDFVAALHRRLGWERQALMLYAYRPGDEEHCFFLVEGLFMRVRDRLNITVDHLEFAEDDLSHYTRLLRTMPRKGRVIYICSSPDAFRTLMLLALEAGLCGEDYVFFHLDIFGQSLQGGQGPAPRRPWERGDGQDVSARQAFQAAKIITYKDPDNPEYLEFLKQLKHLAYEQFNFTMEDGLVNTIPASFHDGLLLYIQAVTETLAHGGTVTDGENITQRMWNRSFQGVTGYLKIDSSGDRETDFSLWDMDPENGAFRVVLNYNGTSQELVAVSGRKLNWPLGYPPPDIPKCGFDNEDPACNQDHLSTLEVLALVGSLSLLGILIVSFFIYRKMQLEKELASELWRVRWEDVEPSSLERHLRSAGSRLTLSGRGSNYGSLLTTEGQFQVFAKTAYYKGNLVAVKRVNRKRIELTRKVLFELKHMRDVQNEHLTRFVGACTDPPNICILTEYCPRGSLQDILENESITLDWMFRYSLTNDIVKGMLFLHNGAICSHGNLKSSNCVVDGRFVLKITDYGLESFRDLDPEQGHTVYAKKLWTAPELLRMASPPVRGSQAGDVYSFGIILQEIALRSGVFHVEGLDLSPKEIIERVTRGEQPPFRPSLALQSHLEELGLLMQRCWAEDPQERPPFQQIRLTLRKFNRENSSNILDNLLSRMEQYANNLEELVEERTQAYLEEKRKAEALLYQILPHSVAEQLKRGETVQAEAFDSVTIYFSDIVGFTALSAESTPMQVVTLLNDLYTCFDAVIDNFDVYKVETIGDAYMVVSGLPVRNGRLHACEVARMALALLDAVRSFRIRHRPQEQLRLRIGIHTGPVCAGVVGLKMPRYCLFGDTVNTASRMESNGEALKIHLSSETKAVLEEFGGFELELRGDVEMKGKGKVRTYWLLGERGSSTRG
Assay: NPRA Functional Cell Assay (cGMP HTRF, NPRA HEK JumpIn stable cells)
Format: cell-based
Conditions: cGMP production, 1 hour at 37° C., 10-point dose response
Outline: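 cGMP HTRF read-out after 1 hour compound treatment at 37° C. of human NPRA-expressing HEK JumpIn cells, 1500 cells/well, in buffer with phosphodiesterase inhibitors IBMX and RO20 (100 uM each). Signal converted to [cGMP] by calibration curve; EC50s fitted by 4-parameter logistic; 50 nM h-ANP as positive response.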

| SMILES | EC50 [µM] |
| --- | --- |
| CC(C)(C)[C@H]1CCc2nc3sc(C(=O)N[C@H](CCN4CCC(F)CC4)c4ccccc4)cc3cc2C1 [Example 252, (6S)-6-tert-butyl-N-[(1R)-3-(4-fluoropiperidin-1-yl)-1-phenylpropyl]-5,6,7,8-tetrahydrothieno[2,3-b]quinoline-2-carboxamide] | 6.3 |
| CC(C)(C)[C@H]1CCc2nc3sc(C(=O)N[C@H](CCN4CCCC4)c4ccccc4)cc3cc2C1 [Example 253, (6S)-6-tert-butyl-N-[(1R)-1-phenyl-3-pyrrolidin-1-ylpropyl]-5,6,7,8-tetrahydrothieno[2,3-b]quinoline-2-carboxamide] | 3.22 |
| CC(C)(C)[C@H]1CCc2nc3sc(C(=O)N[C@H](CCN4CCC(CO)CC4)c4ccccc4)cc3cc2C1 [Example 255, (6S)-6-tert-butyl-N-{(1R)-3-[4-(hydroxymethyl)piperidin-1-yl]-1-phenylpropyl}-5,6,7,8-tetrahydrothieno[2,3-b]quinoline-2-carboxamide] | 2.93 |
| CC(C)(C)[C@H]1CCc2nc3sc(C(=O)N[C@H](CCN4CC(O)C4)c4ccccc4)cc3cc2C1 [Example 256, (6S)-6-tert-butyl-N-[(1R)-3-(3-hydroxyazetidin-1-yl)-1-phenylpropyl]-5,6,7,8-tetrahydrothieno[2,3-b]quinoline-2-carboxamide] | 3.1 |
| CC(C)(C)[C@H]1CCc2nc3sc(C(=O)N[C@H](CCN4CCC[C@H]4CO)c4ccccc4)cc3cc2C1 [Example 257, (6S)-6-tert-butyl-N-{(1R)-3-[(2S)-2-(hydroxymethyl)pyrrolidin-1-yl]-1-phenylpropyl}-5,6,7,8-tetrahydrothieno[2,3-b]quinoline-2-carboxamide] | 0.886 |
| CC(C)(C)[C@H]1CCc2nc3sc(C(=O)N[C@H](CCN4CCC(C(=O)O)CC4)c4ccccc4)cc3cc2C1 [Example 258, 1-[(3R)-3-({[(6S)-6-tert-butyl-5,6,7,8-tetrahydrothieno[2,3-b]quinolin-2-yl]carbonyl}amino)-3-phenylpropyl]piperidine-4-carboxylic acid] | 2.08 |
| CC(C)(C)[C@H]1CCc2nc3sc(C(=O)N[C@H](CCN4CCC(CO)C4)c4ccccc4)cc3cc2C1 (stereo partly drawn) [Example 259, (6S)-6-tert-butyl-N-{(1R)-3-[3-(hydroxymethyl)pyrrolidin-1-yl]-1-phenylpropyl}-5,6,7,8-tetrahydrothieno[2,3-b]quinoline-2-carboxamide] | 1.82 |
| CC(C)(C)[C@H]1CCc2nc3sc(C(=O)N[C@H](CCN[C@H]4C[C@H](O)C4)c4ccccc4)cc3cc2C1 [Example 260, (6S)-6-tert-butyl-N-{(1R)-3-[(trans-3-hydroxycyclobutyl)amino]-1-phenylpropyl}-5,6,7,8-tetrahydrothieno[2,3-b]quinoline-2-carboxamide] | 2 |
| CC(C)(C)[C@H]1CCc2nc3sc(C(=O)N[C@H](CCN4CCC(O)C4)c4ccccc4)cc3cc2C1 (stereo partly drawn) [Example 261, (6S)-6-tert-butyl-N-[(1R)-3-(3-hydroxypyrrolidin-1-yl)-1-phenylpropyl]-5,6,7,8-tetrahydrothieno[2,3-b]quinoline-2-carboxamide] | 6.32 |
| CC(C)(C)[C@H]1CCc2nc3sc(C(=O)N[C@H](CCN4CCC[C@@H]4CO)c4ccccc4)cc3cc2C1 [Example 262, (6S)-6-tert-butyl-N-{(1R)-3-[(2R)-2-(hydroxymethyl)pyrrolidin-1-yl]-1-phenylpropyl}-5,6,7,8-tetrahydrothieno[2,3-b]quinoline-2-carboxamide] | 6.32 |
| CC(C)(C)[C@H]1CCc2nc3sc(C(=O)N[C@H](CCN4CCC(O)CC4)c4ccc(-c5ccnnc5)nc4)nc3cc2C1 [Example 263, (S)-7-(tert-butyl)-N-((R)-3-(4-hydroxypiperidin-1-yl)-1-(6-(pyridazin-4-yl)pyridin-3-yl)propyl)-5,6,7,8-tetrahydrothiazolo[5,4-b]quinoline-2-carboxamide] | 0.129 |
| CC1([C@H]2CCc3nc4sc(C(=O)N[C@H](CCN5CCC(O)CC5)c5ccc(-c6ccnnc6)nc5)nc4cc3C2)CC1 [Example 264, (S)-N-((R)-3-(4-hydroxypiperidin-1-yl)-1-(6-(pyridazin-4-yl)pyridin-3-yl)propyl)-7-(1-methylcyclopropyl)-5,6,7,8-tetrahydrothiazolo[5,4-b]quinoline-2-carboxamide] | 0.113 |
| CC(C)[C@]1(F)CCc2nc3sc(C(=O)N[C@H](CCN4CCC(O)CC4)c4ccc(-c5ccnnc5)nc4)nc3cc2C1 [Example 265, (S)-7-fluoro-N-((R)-3-(4-hydroxypiperidin-1-yl)-1-(6-(pyridazin-4-yl)pyridin-3-yl)propyl)-7-isopropyl-5,6,7,8-tetrahydrothiazolo[5,4-b]quinoline-2-carboxamide] | 0.248 |
| CC(C)(C)[C@H]1CCc2nc3sc(C(=O)N[C@H](CCN4CCC(O)CC4)c4cnc(-c5ccnnc5)c(F)c4)nc3cc2C1 [Example 266, (S)-7-(tert-butyl)-N-((R)-1-(5-fluoro-6-(pyridazin-4-yl)pyridin-3-yl)-3-(4-hydroxypiperidin-1-yl)propyl)-5,6,7,8-tetrahydrothiazolo[5,4-b]quinoline-2-carboxamide] | 0.142 |
| CC1([C@H]2CCc3nc4sc(C(=O)N[C@H](CCN5CCC(O)CC5)c5ccc(-c6cn[nH]c6)cc5)nc4cc3C2)CC1 [Example 267, (S)-N-((R)-1-(4-(1H-pyrazol-4-yl)phenyl)-3-(4-hydroxypiperidin-1-yl)propyl)-7-(1-methylcyclopropyl)-5,6,7,8-tetrahydrothiazolo[5,4-b]quinoline-2-carboxamide] | 0.655 |
| O=C(N[C@H](CCN1CCC(O)CC1)c1ccc(-c2cn[nH]c2)cc1)c1nc2cc3c(nc2s1)CC[C@H](C1(C(F)(F)F)CC1)C3 [Example 268, (S)-N-((R)-1-(4-(1H-pyrazol-4-yl)phenyl)-3-(4-hydroxypiperidin-1-yl)propyl)-7-(1-(trifluoromethyl)cyclopropyl)-5,6,7,8-tetrahydrothiazolo[5,4-b]quinoline-2-carboxamide] | 2.03 |
| COC(=O)C1CCN(CC[C@@H](NC(=O)c2nc3cc4c(nc3s2)CC[C@@](F)(C(C)C)C4)c2ccc(-c3ccnnc3)nc2)CC1 [Example 269, methyl 1-((R)-3-((S)-7-fluoro-7-isopropyl-5,6,7,8-tetrahydrothiazolo[5,4-b]quinoline-2-carboxamido)-3-(6-(pyridazin-4-yl)pyridin-3-yl)propyl)piperidine-4-carboxylate] | 1.85 |
| CC(C)[C@]1(F)CCc2nc3sc(C(=O)N[C@H](CCN4CCC(C(=O)O)CC4)c4ccc(-c5ccnnc5)nc4)nc3cc2C1 [Example 270, 1-((R)-3-((S)-7-fluoro-7-isopropyl-5,6,7,8-tetrahydrothiazolo[5,4-b]quinoline-2-carboxamido)-3-(6-(pyridazin-4-yl)pyridin-3-yl)propyl)piperidine-4-carboxylic acid] | 1.21 |
| CC(C)(C)[C@@H]1CCc2nc3sc(C(=O)N[C@H](CCN4CCC(c5nn[nH]n5)CC4)c4ccc(-c5cnc(O)c(F)c5)cc4)nc3cc2C1 [Example 271, (R)-N-((R)-3-(4-(2H-tetrazol-5-yl)piperidin-1-yl)-1-(4-(5-fluoro-6-hydroxypyridin-3-yl)phenyl)propyl)-7-(tert-butyl)-5,6,7,8-tetrahydrothiazolo[5,4-b]quinoline-2-carboxamide] | 1.1 |
| CC(C)(C)[C@H]1CCc2nc3sc(C(=O)NC(CCN4CCCC4)c4ccncc4)nc3cc2C1 (stereo partly drawn) [Example 272, (7S)-7-(tert-butyl)-N-(1-(pyridin-4-yl)-3-(pyrrolidin-1-yl)propyl)-5,6,7,8-tetrahydrothiazolo[5,4-b]quinoline-2-carboxamide] | 0.94 |
| CC(C)(C)[C@H]1CCc2nc3sc(C(=O)N[C@H](CCN4CCC(O)CC4)c4ccc(N5CCOCS5(=O)=O)nc4)nc3cc2C1 [Example 273, (S)-7-(tert-butyl)-N-((R)-1-(6-(3,3-dioxido-1,3,4-oxathiazinan-4-yl)pyridin-3-yl)-3-(4-hydroxypiperidin-1-yl)propyl)-5,6,7,8-tetrahydrothiazolo[5,4-b]quinoline-2-carboxamide] | 0.182 |
